Patent publication US20130231346A1, “METHODS OF TREATING CANCER” (GLAXOSMITHKLINE INTELLECTUAL PROPERTY (NO.2) LIMITED, priority 2010, published 2013)

Tests used:
[1] = tested on: RAS-mutant NSCLC cell lines; test: Inhibition of cell growth (CellTiter-Glo) in panel of RAS-mutant NSCLC cell lines; settings: for Response Rate (sensitivity/total lines tested), Cell growth inhibition: Ras mut NSCLC cell lines, CellTiter-Glo, 72 hours of treatment; for Single agent activity (in words): agent alone, cell growth inhibition and apoptosis
Experimental: Cells are plated in 384-well plates at 500 cells/well in culture media appropriate for each cell type, supplemented with 10% FBS and 1% penicillin/streptomycin, and incubated overnight at 37° C., 5% CO2. Cells are treated in a grid manner with dilution of Compound A^2 (20 dilutions, including no compound, of 2-fold dilutions starting from 1-20 μM depending of compound) from left to right on 384-well plate and also treated with Compound B^2 (20 dilutions, including no compound, of 2-fold dilutions starting from 1-20 μM depending of compound) from top to bottom on 384-well plate and incubated as above for a further 72 hours. In some instances compounds are added in a staggered manner and incubation time can be extended up to 7 days. Cell growth is measured using CellTiter-Glo® reagent according to the manufacturer's protocol and signals are read on a PerkinElmer EnVision™ reader set for luminescence mode with a 0.5-second read.
Results are expressed as a percentage of the t=0 value and plotted against compound(s) concentration. The t=0 value is normalized to 100% and represents the number of cells present at the time of compound addition. The cellular response is determined for each compound and/or compound combination using a 4- or 6-parameter curve fit of cell viability against concentration using the IDBS XLfit plug-in for Microsoft Excel software and determining the concentration required for 50% inhibition of cell growth (gIC50). Background correction is made by subtraction of values from wells containing no cells.
(§1) A panel of 24 non-small cell lung carcinoma (NSCLC) cell lines harboring RAS mutations was analyzed for genomic alterations, gene expression profiling and protein phosphorylation in MAPK and PI3K pathways. Inhibition of cell growth and induction of apoptosis were determined by CellTiter-Glo® and caspase 3/7 activation assays after 72 and 24 hours of treatment, respectively.

[2] = tested on: RAS-mutant NSCLC cell lines; test: Induction of apoptosis (caspase 3/7 activation) in panel of RAS-mutant NSCLC cell lines; assay type: cell-based; settings: for Response Rate (sensitivity/total lines tested), Cell Apoptosis (capsase 3/7): Ras mut NSCLC cell lines, caspase 3/7 activation, 24 hours of treatment
Experimental: as §1

| Compound | Response Rate (sensitivity/total lines tested), Cell growth inhibition [1] | Response Rate (sensitivity/total lines tested), Cell Apoptosis (capsase 3/7) [2] | Single agent activity (in words) ([1]; RAS-mutant NSCLC lines) | Cell growth inhibition (in words) ([1]; RAS-mutant NSCLC lines) | Apoptosis (in words) ([2]; RAS-mutant NSCLC lines, single agent) |
| --- | --- | --- | --- | --- | --- |
| Cc1nc(Nc2ncc(C(=O)Nc3c(C)cccc3Cl)s2)cc(N2CCN(CCO)CC2)n1 [Dasatinib] | 20% (2/10) | 0% (0/10) | – | – | – |
| Nc1nc2[nH]cc(CCc3ccc(C(=O)N[C@@H](CCC(=O)O)C(=O)O)cc3)c2c(=O)[nH]1 [Pemtrexed] | 38% (4/9) | – | – | – | – |
| Cn1ncc(Cl)c1-c1cc(C(=O)N[C@H](CN)Cc2cccc(F)c2)sc1Cl [AKT inhibitor, N-{(1S)-2-amino-1-[(3-fluorophenyl)methyl]ethyl}-5-chloro-4-(4-chloro-1-methyl-1H-pyrazol-5-yl)-2-thiophenecarboxamide] | 6% (1/18) | 0% (0/9) | little or no activity | – | – |
| COc1ncc(-c2ccc3nccc(-c4ccnnc4)c3c2)cc1NS(=O)(=O)c1ccc(F)cc1F [PI3k/mTOR inhibitor, 2,4-difluoro-N-{2-(methyloxy)-5-[4-(4-pyridazinyl)-6-quinolinyl]-3-pyridinyl}benzenesulfonamide] | 69% (9/13) | 6% (1/16) | – | potently inhibited cell growth | little apoptosis |
| C#Cc1cccc(Nc2ncnc3cc(OCCOC)c(OCCOC)cc23)c1 [Erlotinib] | 0% (0/24) | 0% (0/24) | little or no activity | – | – |
| dihydroxy-12-[(2R)-1-[(1S,3R,4R)-4-(2-hydroxyethoxy)-3-methoxycyclohexyl]propan-2-yl]-19,30-dimethoxy-15,17,21,23,29,35-hexamethyl-11,36-dioxa-4-azatricyclo[30.3.1.0^4.9]hexatriaconta-16,24,26,28-tetraene-2,3,10,14,20-pentone [Everolimus] | 8% (2/24) | 0% (0/24) | little or no activity | – | – |
